From publication PMC11596392, “Enhanced Antibacterial, Anti-Inflammatory, and Antibiofilm Activities of Tryptophan-Substituted Peptides Derived from Cecropin A-Melittin Hybrid Peptide BP100” (Molecules, 2024)
Values after ≈ are worked out from the molar mass of the structure shown. Like-named read-outs stand apart in the source and are kept apart here. Where no end group is shown, it is not given here.

How the values were obtained:
E. coli (KCTC 1682) = assay type: cell-based, Escherichia coli
Procedure: (§1) To comprehensively evaluate the therapeutic potential of BP100 and the five selected analogs, we assessed their capacity to maintain antibacterial activity in the presence of physiological salts and serum (Table 4). Antibacterial assays were conducted in an environment supplemented with either […] fresh human serum or physiological salts. […] This enhanced stability in physiologically relevant conditions may have important implications for the potential therapeutic applications of these peptide analogs.
(§2) The minimal inhibitory concentrations (MICs) of the peptides against bacterial strains were determined using a modified broth-microdilution method in accordance with the National Committee for Clinical Laboratory Standards (NCCLS) guidelines. Overnight cultures were diluted in cation-adjusted Mueller–Hinton Broth (MHB) to achieve an inoculum density of 2 × 10^6 CFU/mL. A two-fold serial dilution of the peptide solution (100 μL) was introduced into microtiter plates, followed by the addition of 100 μL of bacterial suspension. The plates were then incubated at 37 °C for 24 h to determine the MICs. Wells containing only culture media served as negative controls, while those with added bacteria functioned as positive controls. The MIC, expressed in μM, was defined as the lowest peptide concentration that prevented visible bacterial growth. This protocol was also employed to determine MICs in the presence of physiological salts (150 mM of NaCl, 4.5 mM of KCl, 6 μM of NH4Cl, 1 mM of MgCl2, 2.5 mM of CaCl2, and 4 μM of FeCl3) and 20% human serum to assess the peptides’ efficacy under conditions more closely resembling physiological environments. All experiments were conducted in triplicate and repeated three times independently to ensure reproducibility and statistical significance of the results.

S. aureus (KCTC 1621) = assay type: cell-based, Staphylococcus aureus
Procedure: as §1, §2

MDRPA (CCARM 2095) = assay type: cell-based, multidrug-resistant Pseudomonas aeruginosa; details: for MICA: MIC of peptide alone: checkerboard, 37 °C, 24 h; for FICI: fractional inhibitory concentration index: peptide with ciprofloxacin, [A]/MICA + [B]/MICB
From the text: Multidrug-resistant pathogens pose a significant challenge to both human and animal health. The steady decline in the discovery of new antibiotics has exacerbated the difficulty in developing effective therapies for infection control. Consequently, there is an urgent need for alternative strategies that can combat pathogens without inducing drug resistance. One such strategy involves the combination of different antimicrobial agents. The effects of antimicrobial peptides (AMPs) combined with conventional antibiotics often surpass those of individual drugs. […] The primary advantage of synergistic combinations lies in their ability to lower the concentration of each antimicrobial agent required for effective antibacterial activity. This approach offers several benefits, including reduced production costs, a decreased risk of adverse side effects, diminished toxicity to mammalian cells, and a lower likelihood of drug resistance development. In light of these potential advantages, we investigated the synergistic effects of BP100 and the five selected analogs in combination with ciprofloxacin against multidrug-resistant Pseudomonas aeruginosa (MDRPA) using a checkerboard synergy assay. Ciprofloxacin, an antibiotic belonging to the fluoroquinolone class, is commonly used to treat various bacterial infections, including urinary tract infections and pneumonia. It exerts a bactericidal effect by inhibiting bacterial DNA gyrase, thereby disrupting DNA replication and transcription […]. The fractional inhibitory concentration index (FICI) results for BP100 and its selected analogs, when paired with ciprofloxacin against MDRPA, are detailed in Table 5. […] Such combinations may offer a valuable approach to enhancing the efficacy of existing antibiotics and potentially mitigating the development of antimicrobial resistance.
The synergistic effects of peptide-antibiotic combinations against methicillin-resistant Staphylococcus aureus (MRSA; CCARM 3089) and multidrug-resistant Pseudomonas aeruginosa (MDRPA; CCARM 2095) were evaluated using the fractional inhibitory concentration index (FICI) method. Antibiotics and peptides were subjected to two-fold serial dilutions, mixed in equal ratios, and combined with a bacterial suspension adjusted to approximately 10^6 CFU/mL. The resulting mixtures were distributed into microplate wells and incubated at 37 °C with orbital shaking at 200 rpm for 24 h. Bacterial growth was monitored by measuring the optical density at 600 nm (OD600). The FICI was calculated using the broth microdilution checkerboard method, defined as the sum of the ratios of the minimum inhibitory concentrations (MICs) of each agent in combination to their individual MICs, according to the following equation: FICI = (MIC of antibiotic in combination/MIC of antibiotic alone) + (MIC of peptide in combination/MIC of peptide alone). The interpretation of FICI values was as follows: FICI ≤ 0.5 indicates synergy; 0.5 < FICI ≤ 1.0 indicates an additive effect; 1.0 < FICI ≤ 4.0 indicates indifference; and FICI > 4.0 indicates antagonism.

Compound	MIC (E. coli (KCTC 1682); 4 μM of FeCl3) [µM]	MIC (E. coli (KCTC 1682); 6 μM of NH4Cl) [µM]	MIC (E. coli (KCTC 1682); 1 mM of MgCl2) [µM]	MIC (E. coli (KCTC 1682); 2.5 mM of CaCl2) [µM]	MIC (E. coli (KCTC 1682); 4.5 mM of KCl) [µM]	MIC (E. coli (KCTC 1682); 150 mM of NaCl) [µM]	MIC (E. coli (KCTC 1682); Control, absence of salts) [µM]	MIC (S. aureus (KCTC 1621); 4 μM of FeCl3) [µM]	MIC (S. aureus (KCTC 1621); 6 μM of NH4Cl) [µM]	MIC (S. aureus (KCTC 1621); 1 mM of MgCl2) [µM]	MIC (S. aureus (KCTC 1621); 2.5 mM of CaCl2) [µM]	MIC (S. aureus (KCTC 1621); 4.5 mM of KCl) [µM]	MIC (S. aureus (KCTC 1621); 150 mM of NaCl) [µM]	MIC (S. aureus (KCTC 1621); Control, absence of salts) [µM]	MICA: MIC of peptide alone (MDRPA (CCARM 2095)) [µg/mL]	FICI: fractional inhibitory concentration index (MDRPA (CCARM 2095))
CC[C@H](C)[C@H](NC(=O)[C@H](CCCCN)NC(=O)[C@H](CCCCN)NC(=O)[C@H](Cc1ccccc1)NC(=O)[C@H](CC(C)C)NC(=O)[C@H](CCCCN)NC(=O)[C@@H](N)CCCCN)C(=O)N[C@@H](CC(C)C)C(=O)N[C@@H](CCCCN)C(=O)N[C@@H](Cc1ccc(O)cc1)C(=O)N[C@@H](CC(C)C)C(N)=O [BP100]	16 (≈ 22.7 µg/mL)	16 (≈ 22.7 µg/mL)	16 (≈ 22.7 µg/mL)	16 (≈ 22.7 µg/mL)	16 (≈ 22.7 µg/mL)	16 (≈ 22.7 µg/mL)	4	16 (≈ 22.7 µg/mL)	16 (≈ 22.7 µg/mL)	16 (≈ 22.7 µg/mL)	16 (≈ 22.7 µg/mL)	16 (≈ 22.7 µg/mL)	16 (≈ 22.7 µg/mL)	4	32	0.375
KKLFKKIWKWL-NH2 [BP11]	4	4	8	16	8	16	8	4	4	4	16	4	8	4	8	0.3125
KKLWKKILKWL-NH2 [BP8]	4	8	8	16	4	8	2	4	4	4	4	4	4	4	8	–
KKWFKKILKWL-NH2 [BP6]	16	16	8	16	4	8	4	8	4	4	4	4	4	2	8	0.375
KKWFKKWLKWL-NH2 [BP13]	8	8	8	16	8	16	8	8	8	8	8	8	8	4	8	0.2656
KKWWKKILKYL-NH2 [BP5]	8	4	4	8	4	8	2	4	4	4	4	4	4	2	8	0.3125
